From publication PMC9405973, “Altered Conformational Landscape upon Sensing Guanine Nucleotides in a Disease Mutant of Elongation Factor-like 1 (EFL1) GTPase” (Biomolecules, 2022)

Target: T1, Efl1 mutant T33A in complex with Sdo1 and the 60S subunits (Saccharomyces cerevisiae, UniProt P53893, T33A)
T1 construct: made in house; host or cells: Efl1: Saccharomyces cerevisiae; Sdo1: Escherichia coli C41; 60S subunits purified from S. cerevisiae strain JD1370
T1 sequence (P53893 1-1110 T33A): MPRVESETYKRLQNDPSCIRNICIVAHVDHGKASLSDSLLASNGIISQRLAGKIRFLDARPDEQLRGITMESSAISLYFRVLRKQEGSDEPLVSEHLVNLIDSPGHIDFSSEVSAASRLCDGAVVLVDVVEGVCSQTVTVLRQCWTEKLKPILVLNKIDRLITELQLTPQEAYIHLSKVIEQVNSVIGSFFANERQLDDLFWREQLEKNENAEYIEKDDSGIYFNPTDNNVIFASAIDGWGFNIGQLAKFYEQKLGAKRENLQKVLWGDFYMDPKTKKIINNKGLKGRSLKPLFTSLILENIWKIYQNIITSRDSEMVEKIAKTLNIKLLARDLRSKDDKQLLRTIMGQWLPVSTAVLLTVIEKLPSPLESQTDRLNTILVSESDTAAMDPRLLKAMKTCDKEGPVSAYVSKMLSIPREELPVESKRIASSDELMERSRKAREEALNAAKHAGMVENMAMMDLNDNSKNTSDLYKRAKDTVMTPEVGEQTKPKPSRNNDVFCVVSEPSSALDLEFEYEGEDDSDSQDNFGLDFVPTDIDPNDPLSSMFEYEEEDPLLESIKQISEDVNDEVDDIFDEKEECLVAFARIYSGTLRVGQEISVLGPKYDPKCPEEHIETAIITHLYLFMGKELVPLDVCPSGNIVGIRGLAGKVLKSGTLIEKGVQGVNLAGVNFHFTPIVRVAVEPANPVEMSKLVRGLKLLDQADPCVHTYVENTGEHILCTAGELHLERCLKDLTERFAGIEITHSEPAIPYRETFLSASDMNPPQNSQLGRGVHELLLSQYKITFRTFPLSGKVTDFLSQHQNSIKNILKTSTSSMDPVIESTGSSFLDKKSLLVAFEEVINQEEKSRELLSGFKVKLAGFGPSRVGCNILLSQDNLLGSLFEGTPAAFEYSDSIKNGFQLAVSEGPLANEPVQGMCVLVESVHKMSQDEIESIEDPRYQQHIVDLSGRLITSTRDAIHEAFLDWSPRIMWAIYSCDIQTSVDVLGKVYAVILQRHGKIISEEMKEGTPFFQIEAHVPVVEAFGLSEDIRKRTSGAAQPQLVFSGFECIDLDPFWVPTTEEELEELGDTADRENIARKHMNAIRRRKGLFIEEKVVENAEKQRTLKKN
T1 sequence (Q07953 1-250 partner): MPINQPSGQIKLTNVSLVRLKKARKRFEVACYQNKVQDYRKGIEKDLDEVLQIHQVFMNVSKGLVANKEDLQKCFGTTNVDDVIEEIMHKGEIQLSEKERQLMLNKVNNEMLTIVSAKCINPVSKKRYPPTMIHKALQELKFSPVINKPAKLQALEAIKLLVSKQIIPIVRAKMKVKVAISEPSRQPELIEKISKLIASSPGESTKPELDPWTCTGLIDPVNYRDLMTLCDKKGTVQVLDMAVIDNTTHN
Assay: Steady state fluorescence binding of mant-GTP to Efl1 T33A in complex with Sdo1 and 60S subunits
Conditions: 25 °C, one-binding-site model; read-out: dissociation constant (Kd)
Description: We measured the binding of different Efl1 constructs present in complex with Sdo1 and 60S subunits to the fluorescence GTP analogue, mant-GTP, by following the increase in the fluorescence signal after excitation at 355 nm. Fluorescence intensities were plotted as a function of increasing nucleotide concentrations, and the dissociation constant (Kd) was calculated by fitting the data to a one-binding-site model (Supplementary Figure S1B).
Hydrolysis of GTP was measured using the Enzchek Phosphate Assay kit (Molecular Probes) as described by Webb. Standard reactions consisted of 100 µL containing 6 µM of Efl1 R1086Q and Efl1 L910K, 0.3 mM MESG, 1.0 U purine nucleoside phosphorylase (PNP) and the indicated amounts of GTP. […]
Reactions were initiated and the GTPase was added after 3 min. Time courses were followed by recording the change in absorbance at 360 nm in a Cary 60 UV -Vis spectrophotometer (Agilent Technologies). Background absorbance was recorded prior to the addition of the GTPase and subtracted from the sample signals. The slope of the measured time courses corresponded to the GTP hydrolysis rate. […] Data were analysed by nonlinear regression to the M ichaelis-Menten equation with the program Origin Version 5.0 (OriginLab, Co., Northampton, MA). […]
Steady state fluorescence measurements […]
Maximum emission at 440 nm was replotted as a function of nucleotide concentration and analysed

CNc1ccccc1C(=O)O[C@H]1[C@@H](O)[C@H](n2cnc3c(=O)[nH]c(N)nc32)O[C@@H]1COP(=O)(O)OP(=O)(O)OP(=O)(O)O [mant-GTP]
Kd: 24 µM
